Test results: US20150037341A1, “Diagnostic and Therapeutic Method” (Plysackaridforskning i Uppsala AB, priority 2011, published 2015)
Entries after “also recorded” stand apart in the source; their conditions may differ.

Columns and labels:
[1] = Nitrocellulose-filter trapping of 3H-labeled heparin bound to TTR peptides; format: binding; details: pH 5.0, 3H-labeled heparin 1500 cpm
Method: (§1) (A) TTR amino acid sequence where histidine “(+)” and other basic amino acids “+” are marked. (B) Equal mole of TTR-peptides or full-length protein (with or without acidic dissociation), were incubated with ^3H-labeled heparin (1500 cpm) at pH 5.0. The amount of ^3H-labeled heparin bound to the peptides was analyzed using a nitrocellulose-filter trapping method.
To characterize the TTR-heparin interaction, we incubated TTR and its peptide fragments with ^3H-heparin. The binding was analyzed by a nitrocellulose-filter trapping method (18). […] This heparin-binding peptide contains three basic amino acids, including a histidine that likely contributed to the pH dependency seen in the TTR-heparin/HS interaction. This selective binding propy was further verified by SPR analysis (FIG. 9).

[2] = biological target: T1, dissociated TTR immobilized onto a Biacore sensor chip (Homo sapiens, UniProt P02766); assay: Surface plasmon resonance (Biacore), heparin/HS over immobilized TTR; format: binding
T1 construct: made in house; host or cells: bacteria
Method: (A) Dissociated TTR was immobilized onto a Biacore sensor chip and heparin (10 μM) was allowed to interact with the immobilized TTR in neutral or in mildly acidic conditions. (B) HS II (10 μM) binding to TTR at different pH was monitored and the response for each sample is expressed as response units (RU). […] (C) TTR (50 μM) incubated with heparin or HS II for 7 days at pH 5.0 or pH 7.4 was analyzed by ThT fluorescence. Data represent triplicate experiments (means±SEM).
Dissociated TTR was immobilized onto a Biacore sensor chip. Heparin (A), HS II (B) or HS I (C) were injected in a concentration series (ranging from 0.001-70 μM) over the surface at pH 5.0. The response for each concentration was measured at the steady-state region of the curve. The apparent equilibrium dissociation constant (KD) was calculated by plotting the response at steady-state for each concentration versus heparin/HS concentration. The data were fitted to the equation: Response=(Rmax*C)/(KD+C), where C is the concentration of heparin/HS. Two analyte flow rates (20 and 30 μl/min) were tested to assess possible effects of mass transport limitations in the system. […] The presented values are average value of three independent experiments.
(A) Equal amount of dissociated or native protein was immobilized onto a Biacore sensor chip and HS II was allowed to interact with the immobilized TTR at pH 5.0. (B) The values of the HS II-TTR interaction signal were obtained by repeated experiments using three chips with different ligand densities (250-3000 RU). The signals were normalized to a ligand density of 1000 RU and average value is shown. Statistical analysis was done by t test.
Interaction of TTR with heparin/HS was evaluated using a Biosensor system (Biacore2000). TTR was dissociated in acidic buffer (pH 2.7) and then diluted into a 50 mM NaAc (pH 5.0) coupling buffer and immobilized onto a CM5 sensor chip to a level of 3000 RU using an amine-coupling kit (GE Healthcare, Uppsala, Sweden). For binding and kinetic analysis, heparin or HS was injected (concentrations indicated in figure legend) over the surface and equilibrated at different pH. The surface was regenerated after each sample with a 30 s wash step of 0.5 M NaCl. All obtained sensorgrams were double-reference subtracted in Biacore evaluation software 2.0, using the reference flow cell and buffer blank sample.

[3] = SPR analysis of TTR peptides binding to immobilized heparin; details: pH 5.0, peptide conc. 25 μg/ml, flow rate 20 μl/min
Method: Heparin was immobilized onto a Biacore sensor chip (CM5) using the surface thiol coupling kit (GE Healthcare). Peptides derived from regions on the TTR sequence (FIG. 5A) containing a histidine residue (24-35, 51-61 and 84-94), were allowed to interact with the heparin surface at pH 5.0 (peptide conc. 25 μg/ml; flow rate 20 μl/min).

recombinant human WT TTR = biological target: T2, recombinant human WT TTR (Homo sapiens, UniProt P02766); assay: Thioflavin T (ThT) fluorescence assay of TTR fibrillization in vitro; format: biochemical
T2 construct: made in house; host or cells: bacteria
Method: (§2) (A, B) The TTR dissolved in phosphate buffer (50 μM, pH 2.7) was incubated alone or with different heparin or HS (12 μM) at 37° C. for 48 h. After incubation the samples were mixed with ThT and fluorescence was measured. Data shown represent triplicate experiments (means±SEM). (C) TTR (500 μM) incubated with heparin (0, 5 or 20 μM) under the same conditions were analyzed with native-PAGE as described in Methods. […] The fibrils migrated in the stacking gel is not shown. (D) Microscopic analysis of the TTR after incubation with heparin. The sample was spotted on a glass and stained with Congo red. Images were taken under fluorescent light (Original magnification: 20×; Scale bar: 5 μm) and polarized light (insert).
(§3) Recombinant wild-type TTR was expressed in bacteria and purified as described previously (Furuya et al. (1991) Biochemistry 30:2415-2421). The purified protein was dissolved in 20 mM phosphate buffer-citric acid (pH 2.7, 3.5, 4.5 or 7.4) to a final concentration of 50 μM for Thioflavin T fluorescence or 500 μM for native-PAGE. Heparin (3H-labeled or unlabeled) and HS were added to the TTR solution to the concentrations as indicated in the respective figure legend. The samples were incubated at 37° C. for the time period as specified.
After incubation, 5 μl of the sample was mixed with ThT in water to a final concentration of 20 μM ThT. The mixture was transferred to a flat bottom-black 96-well plate (Grainer) and the fluorescence was measured at excitation- and emission wavelength of 440 and 480 nm, respectively (Gain=55, FARcyte instruments). Samples aggregated at different pHs were adjusted to neutral pH after completed incubation prior to ThT staining. The experiments were run in duplicate or triplicate.

[4] = biological target: T3, full-length TTR (native, dissociated or aggregated) (Homo sapiens, UniProt P02766); assay: Nitrocellulose-filter trapping of 3H-labeled heparin bound to full-length TTR; format: binding
T3 construct: Equal mole of TTR-peptides or full-length protein (with or without acidic dissociation); made in house; host or cells: bacteria
Method: as §1
Recombinant wild type TTR (500 μM) was dissolved in phosphate buffer (pH 7.4 or 2.7) and incubated at 37° C. for the time period as indicated. (a) The incubated samples were analyzed for their degree of aggregation with native PAGE. (b) The samples were incubated with ^3H-labelled heparin for 30 min at room temperature. The amount of heparin bound to the samples with different aggregation degree was analyzed by a nitrocellulose-filter trapping method.

[5] = system: TTR transgenic flies (engineered mutant form of human TTR); assay: Transgenic Drosophila TTR-model, flies reared on supplemented medium; format: in vivo, Drosophila melanogaster; details: medium supplemented 10 mg/ml, heads collected after 9-17 days
Method: (A) Eggs of TTR transgenic flies were cultured on regular medium (control) or medium supplemented with low molecular weight heparin (Klexane®) or heparin. Heads were collected 9-17 days posteclosion and lysed in saline. The extract was analyzed by ThT staining. Values represent the average of duplicate experiments. (B) The presence of heparin in the Drosophila head lysate was analyzed with dot-blot stained Alcian blue. Heparin (25 ng and 50 ng) was used as positive control. Twenty-five microliters of the lysate (same samples as used for ThT analysis) was applied to a nylon membrane (Hybond N+, GE Healthcare) and stained with Alcian blue (0.5% Alcian Blue dissolved in 25% isopropanol and 3% acetic acid).
FIG. 14 illustrates the detection of heparin-TTR co-localization in TTR transgenic flies (A-G) Confocal microscopy analysis of cryo-sections prepared from Drosophila heads. (A) Overview image of a Drosophila head stained with DAPI (blue), showing the brain (Br), optical lobes (OI) and retina (Re). […]
The transgenic Drosophila melanogaster strain (Dhet TTR-A) overexpressing a mutant TTR was generated as described (7). […] The fluorescence was measured as described above. Non-TTR-transgenic flies were used as control to subtract background fluorescence. […]

[6] = biological target: T4, recombinant wild-type TTR (Homo sapiens, UniProt P02766); assay: Native-PAGE of TTR incubated with heparin (Coomassie, Alcian blue, 3H counting of gel sections); format: biochemical
T4 construct: made in house; host or cells: bacteria
Method: TTR dissolved in phosphate buffer (pH 2.7) was co-incubated with heparin (mixture of ^3H-labeled and non-labeled) at 37° C. for 48 h. (A) The TTR-heparin co-incubated sample and heparin alone were separated with native-PAGE and stained with Alcian blue. (B) An identical set of samples was separated on the native-PAGE as above, and each lane was cut into six sections (as illustrated in A). The gel slices were incubated for 2 hr in H2O to extract the heparin. The radioactivity was measured by scintillation counting.
TTR dissolved in phosphate buffer (pH 2.7) was incubated without heparin at 37° C. for 48 h. Heparin (mixture of ^3H-labeled and nonlabeled) was then added and the TTR-heparin sample was incubated for an additional hour at 37° C. The sample was thereafter separated by native-PAGE and the gel was cut into 6 sections as illustrated in FIG. 4A. Radioactivity in each section was measured by scintillation counting. Data represents triplicate experiments (mean±SEM).
as §3
After incubation, 10 μl of the samples was mixed with 2.5 μl of a 5× sample buffer (0.3 M Tris-HCl, pH 6.8, 0.05% bromophenol blue, 50% glycerol) and loaded onto a 10% polyacrylamide gel without SDS. […] For quantification of ^3H-labeled heparin, the corresponding lanes in the gel were cut into six sections including the stacking gel (see FIG. 4A) that were transferred to a scintillation vial in 3 ml of H2O. After 2 hr incubation, 2 ml of scintillation cocktail was added and the radioactivity was measured.

[7] = biological target: T4, recombinant wild-type TTR; assay: Congo red staining of TTR after incubation with heparin; format: biochemical; details: fluorescence and polarized light microscopy
Method: as §2

## 24-35 peptide containing the V30M mutation: TTR 24-35 peptide with the V30M mutation associated with familial amyloid neuropathy (PAINVAMHVFRK; UniProt P02766 44-55, looked up, variant V30M)
[1]
  Binding of 3H-labeled heparin to the peptide: substantially lower binding to heparin compared to the WT peptide

## Cc1ccc2c(c1)sc(-c1ccc(N(C)C)cc1)[n+]2C.[Cl-] [Thioflavin T]
[2]; Thioflavin T 50 μM
  Binding to surface immobilized with dissociated TTR (SPR): no binding
[2]; Thioflavin T injection
  Binding to surface immobilized with aggregated TTR (SPR): significant binding

## PAINVAVHVFRK [peptide of aa 24-35, Synthesized peptide of aa 24-35 of TTR]
[1]
  Binding of 3H-labeled heparin to the peptide: bound to heparin
[3]
  Interaction of the peptide with the heparin surface (SPR): interacted with heparin

## heparin
[2]; pH 5.0 (mildly acidic), 10 μM
  Binding to dissociated TTR (SPR response): observed
[2]; pH 5.0, apparent KD from steady state
  Affinity of TTR for heparin relative to HS II: 10 fold
Recombinant human WT TTR; TTR 50 μM, pH 2.7, 37° C., 48 h, in the presence of heparin
  ThT fluorescence (fibril content): 8000 AU
Recombinant human WT TTR; TTR 50 μM, pH 2.7, heparin or HS 12 μM, 37° C., 48 h
  Effect on TTR fibrillization/aggregation (ThT fluorescence): prompted TTR aggregation, forming substantial amounts of amyloid-like fibrils
Recombinant human WT TTR; pH 2.7 and 5.0
  Effect on TTR fibrillization (ThT fluorescence): greatly promoted TTR fibrillization
[4]; TTR 500 μM pre-incubated at pH 7.4 or 2.7, heparin 30 min at room temperature
  Binding of 3H-labelled heparin to aggregated TTR: binds to aggregated TTR
[4]; pH 5.0
  Binding of 3H-labeled heparin to dissociated versus native full-length TTR: preferentially bound to dissociated TTR
[5]
  TTR amyloid-like fibril formation in fly head lysate (ThT fluorescence): generated ThT-positive amyloid-like fibrils; also recorded: promoted formation of TTR amyloid-like fibrils
[6]; TTR 500 μM, heparin 5 or 20 μM, pH 2.7, 37° C., 48 h
  Migration pattern of TTR aggregates on native-PAGE: substantial macromolecular TTR aggregates migrating in the top of the gel
[6]; TTR aggregated 48 h without heparin, then heparin for 1 h at 37° C.
  Interaction of 3H-labeled heparin with pre-aggregated TTR (gel sections): no or very little heparin interacted with aggregated TTR
[6]; pH 2.7, 37° C., 48 h co-incubation
  Recovery of 3H-labeled heparin in gel sections after co-incubation with TTR: substantially recovered in section 1
[7]
  Congo red staining of fibrils: Congo red positive fibrils
